Results taken from patent publication US20260184697A1, “EZH1/2 INHIBITOR, PREPARATION THEREOF, AND USE THEREOF IN ANTI-TUMOR THERAPY” (JIANGSU TASLY DIYI PHARMACEUTICAL CO., LTD., priority 2022, published 2026).
Read-outs that look alike come from different tables or passages of the source.

What was measured:
EZH2/SUZ/EED = target: T1, EZH2/SUZ/EED (Homo sapiens, UniProt O75530+Q15022+Q15910); experiment: Inhibitory effect on EZH2 by the MTase-Glo method (Test Example 1); assay type: biochemical; conditions: EZH2/SUZ/EED 6.25 nM, H3 peptide 10 μM, SAM 3 μM, 30° C. 3 h, read-out: Test Example 1 WT EZH2 IC50
T1 construct: purchased BPS 51003
Description: (§1) The compound was dissolved in DMSO, and the compound was serially diluted using ECHO665 and transferred to a 384-well reaction plate (Corning, 3824). A sample containing only DMSO was added as a positive control (maximum signal control) and a negative control (minimum signal control), while ensuring that the final DMSO content in each reaction well was 0.5%. The protein was configured in reaction buffer (50 mM Bicine, 0.01% Triton X-100, 1 mM DTT, 0.01% BSA, pH 7.6), such that the final reaction concentrations of EZH2/SUZ/EED (BPS, 51003) protein solution and EZH1/SUZ/EED (BPS, 51006) were 6.25 nM and 25 nM, respectively. The negative control (minimum signal control) used an equal amount of buffer instead of protein solution. The prepared protein solution was added to the 384-well reaction plate and pre-incubated at room temperature for 15 minutes. The mixture of the substrate H3 peptide fragment (custom-synthesized by GenScript, biotinylated Histone H3(21-44) peptide ([…]-GG-K(Biotin)-OH)) prepared in the reaction buffer and SAM (Promega, V7601) was added into the 384-well plate, such that the final reaction concentration of H3 peptide fragment was 10 μM, and the final concentration of SAM was 3 μM. The mixture was centrifuged at 1000 rpm for 1 min. The 384-well reaction plate was placed in a constant temperature shaker and incubate at 30° C. for 3 h at a speed of 300 rpm. Then the detection reagent was added according to the experimental process of the kit MTase-Glo (Promega, V7601) and incubated.
(§2) After incubation, read with BMG PHERAStar. The luminescence signals obtained by positive control (maximum signal control) and negative control (minimum signal control) were normalized to obtain the inhibition rate of different concentrations of compounds. Then, the IC50 of the compound on the enzyme activity inhibition was calculated by GraphPad Prism 6 with log(inhibitor) vs. response-Variable slope model fitting. The fitting equation is: Y=Bottom+(Top−Bottom)/(1+10^((Log IC50−X)*HillSlope)), wherein Y represents the known percentage remaining enzyme activity, and X represents the known activity after Log compound concentration.

EZH1/SUZ/EED = target: T2, EZH1/SUZ/EED (Homo sapiens, UniProt O75530+Q15022+Q92800); experiment: Inhibitory effect on EZH1 by the MTase-Glo method (Test Example 1); assay type: biochemical; conditions: EZH1/SUZ/EED 25 nM, H3 peptide 10 μM, SAM 3 μM, 30° C. 3 h, read-out: Test Example 1 WT EZH1 IC50
T2 construct: purchased BPS 51006
Description: as §1, §2

[1] = test system: H3K27Me3 methylation in Karpas-422 cells; experiment: H3K27Me3 cell method, inhibition of H3K27Me3 methylation (Test Example 2); assay type: cell-based, human
Description: Karpas-422 (Nanjing Kebai, CBP60629) cells were seeded in a 96-well plate (Corning, 3894) at 15,000 cells per well in culture medium (80% 1640 (Hyclone, SH30809.01)+20% FBS (Corning, 35-081-CV)), and then added with different concentrations of compounds for treatment. The cell growth group without adding compounds is used as a positive control (maximum signal control), and the medium is used as a negative control (minimum signal control), while ensuring that in each reaction well, the final concentration of DMSO was 0.2%. Compounds and cells were incubated for 3 days in a cell culture incubator (37° C., 5% CO2). The 96-well plate was taken out from the cell culture incubator and equilibrated to room temperature, and 25 ul of cell suspension was taken out into a 384-well plate. The CCK8 (Beiyuntian, C0040) detection reagent was added, incubated at 37° C. for 1 h, and […] was detected. The rest of the cells followed the procedure of the kit EPIgeneous H3K27Me3 cellular kit (Cisbio, 62KC3PAE) to carry out experiment, read HTRF signal with BMG PHERAStar. […] By GraphPad Prism 6 with log(inhibitor)vs.response-Variable slope model simulation, the IC50 of the compound on cell activity inhibition was calculated. The fitting equation is: Y=Bottom+(Top−Bottom)/(1+10^((Log IC50−X)*HillSlope)), wherein Y represents the inhibition rate, and X represents the known concentration of the compound after Log.

[2] = Homo sapiens, KARPAS-422, 72 h, Karpas-422 cells, 3 days incubation, HTRF signal, read-out: Test Example 2 H3K27Me3 inhibition (Karpas-422) IC50
[3] = Karpas-422 cells, 3 days incubation, HTRF signal, read-out: Test Example 2 H3K27Me3 inhibition (Karpas-422) IC50

T2 sequence (Q92800 2-747 limits assumed): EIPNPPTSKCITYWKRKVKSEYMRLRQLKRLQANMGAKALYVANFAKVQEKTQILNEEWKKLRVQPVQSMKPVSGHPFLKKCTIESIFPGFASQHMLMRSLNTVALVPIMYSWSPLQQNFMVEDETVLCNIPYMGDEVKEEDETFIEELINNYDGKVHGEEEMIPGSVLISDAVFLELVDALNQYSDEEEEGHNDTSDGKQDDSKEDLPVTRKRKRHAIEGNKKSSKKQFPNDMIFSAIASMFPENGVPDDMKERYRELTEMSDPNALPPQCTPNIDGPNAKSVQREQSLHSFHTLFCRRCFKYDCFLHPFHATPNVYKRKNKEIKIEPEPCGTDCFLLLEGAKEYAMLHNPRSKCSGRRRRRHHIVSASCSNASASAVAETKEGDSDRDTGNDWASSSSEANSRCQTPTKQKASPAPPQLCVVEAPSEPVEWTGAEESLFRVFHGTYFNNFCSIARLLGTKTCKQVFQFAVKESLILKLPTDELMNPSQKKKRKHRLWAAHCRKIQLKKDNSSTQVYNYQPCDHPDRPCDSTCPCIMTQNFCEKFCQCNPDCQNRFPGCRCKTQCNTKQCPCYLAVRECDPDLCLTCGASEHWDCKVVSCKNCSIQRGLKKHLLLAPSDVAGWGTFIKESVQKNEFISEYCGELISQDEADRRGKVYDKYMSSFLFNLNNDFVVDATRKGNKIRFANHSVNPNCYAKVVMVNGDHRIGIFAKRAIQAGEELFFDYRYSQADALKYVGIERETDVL
T2 sequence (Q15022 2-739 partner limits assumed): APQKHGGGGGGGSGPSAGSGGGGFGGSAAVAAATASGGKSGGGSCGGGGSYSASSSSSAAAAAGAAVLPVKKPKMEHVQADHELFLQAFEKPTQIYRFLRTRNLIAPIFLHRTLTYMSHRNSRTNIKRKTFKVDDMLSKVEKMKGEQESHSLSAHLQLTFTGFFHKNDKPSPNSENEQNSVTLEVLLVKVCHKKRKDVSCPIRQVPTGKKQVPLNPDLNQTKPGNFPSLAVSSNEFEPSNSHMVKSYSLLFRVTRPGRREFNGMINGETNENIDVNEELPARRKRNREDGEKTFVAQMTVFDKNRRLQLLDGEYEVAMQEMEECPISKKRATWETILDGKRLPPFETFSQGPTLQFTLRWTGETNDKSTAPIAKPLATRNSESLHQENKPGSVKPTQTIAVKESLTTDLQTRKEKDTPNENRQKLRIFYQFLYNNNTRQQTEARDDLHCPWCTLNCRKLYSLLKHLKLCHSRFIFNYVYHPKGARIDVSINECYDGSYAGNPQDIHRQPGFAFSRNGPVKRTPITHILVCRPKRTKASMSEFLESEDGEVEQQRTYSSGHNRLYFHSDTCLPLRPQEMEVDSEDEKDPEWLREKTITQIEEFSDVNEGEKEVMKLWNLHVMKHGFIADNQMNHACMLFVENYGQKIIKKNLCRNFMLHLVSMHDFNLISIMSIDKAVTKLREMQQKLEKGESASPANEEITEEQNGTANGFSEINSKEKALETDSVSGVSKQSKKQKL
T2 sequence (O75530 2-441 partner limits assumed): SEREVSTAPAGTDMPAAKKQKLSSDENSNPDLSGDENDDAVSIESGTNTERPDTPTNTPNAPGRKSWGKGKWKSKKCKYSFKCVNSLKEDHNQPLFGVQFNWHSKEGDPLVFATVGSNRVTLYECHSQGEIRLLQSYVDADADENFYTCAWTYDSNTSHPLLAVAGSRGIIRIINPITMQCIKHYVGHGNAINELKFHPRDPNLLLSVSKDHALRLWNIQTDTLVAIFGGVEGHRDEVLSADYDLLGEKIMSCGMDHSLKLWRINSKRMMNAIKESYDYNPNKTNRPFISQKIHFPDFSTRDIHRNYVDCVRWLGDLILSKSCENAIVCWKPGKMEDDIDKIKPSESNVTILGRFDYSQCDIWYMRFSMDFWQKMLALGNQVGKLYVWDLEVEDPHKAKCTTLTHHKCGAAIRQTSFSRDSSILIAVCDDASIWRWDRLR
T1 sequence (Q15910 2-746 limits assumed): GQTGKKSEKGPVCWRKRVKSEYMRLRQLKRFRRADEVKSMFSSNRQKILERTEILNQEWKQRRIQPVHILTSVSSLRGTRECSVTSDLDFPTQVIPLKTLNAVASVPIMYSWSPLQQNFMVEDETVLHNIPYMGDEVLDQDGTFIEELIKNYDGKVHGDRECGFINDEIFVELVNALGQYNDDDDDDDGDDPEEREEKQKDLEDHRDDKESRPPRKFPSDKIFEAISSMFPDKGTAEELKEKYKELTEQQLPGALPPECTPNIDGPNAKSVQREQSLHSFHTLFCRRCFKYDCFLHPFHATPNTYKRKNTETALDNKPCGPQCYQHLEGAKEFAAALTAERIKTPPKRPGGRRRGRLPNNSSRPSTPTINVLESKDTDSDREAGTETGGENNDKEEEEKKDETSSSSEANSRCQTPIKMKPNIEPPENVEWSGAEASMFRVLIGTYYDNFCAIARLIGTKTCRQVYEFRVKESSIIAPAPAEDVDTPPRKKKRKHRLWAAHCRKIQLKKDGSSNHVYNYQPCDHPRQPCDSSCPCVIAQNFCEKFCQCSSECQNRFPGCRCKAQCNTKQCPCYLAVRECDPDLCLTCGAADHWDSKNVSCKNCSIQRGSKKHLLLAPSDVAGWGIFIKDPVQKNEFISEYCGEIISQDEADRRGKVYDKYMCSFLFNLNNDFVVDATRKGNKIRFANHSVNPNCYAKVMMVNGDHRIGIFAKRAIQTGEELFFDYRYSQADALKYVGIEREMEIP
T1 sequence (Q15022 2-739 partner limits assumed): as the sequence (Q15022 2-739 partner limits assumed) above
T1 sequence (O75530 2-441 partner limits assumed): as the sequence (O75530 2-441 partner limits assumed) above

Structure (SMILES)	IC50 (EZH2/SUZ/EED) [nM]	IC50 (EZH1/SUZ/EED) [nM]	IC50 [1, 2] [nM]	IC50 [1, 3] [nM]	IC50 ([1]; Homo sapiens, KARPAS-422, 72 h, read-out: Test Example 2 H3K27Me3 inhibition (Karpas-422) IC50(nM)) [nM]
Cc1cc(C)c(CNC(=O)c2cc(Cl)c3c(c2C)OC(C2CCC(N4CC(F)(F)C4)CC2)CO3)c(=O)[nH]1 (single isomer, unassigned) [Compound 57]	21.7	260	> 1000		
Cc1cc(C)c(CNC(=O)c2cc(Cl)c3c(c2C)OC(C2CCC(N4CC(F)(F)C4)CC2)CO3)c(=O)[nH]1 (single isomer, unassigned) [Compound 58]	35.8	2300		> 1000	
CON(C)C1CCC(C2COc3c(Cl)cc(C(=O)NCc4c(C)cc(C)[nH]c4=O)c(C)c3O2)CC1 (single isomer, unassigned) [Compound 78]	11.9				370
Cc1cc(C)c(CNC(=O)c2cc(Cl)c3c(c2C)OC(C2CCC(N4CCOCC4)CC2)CO3)c(=O)[nH]1 (single isomer, unassigned) [Compound 81]	31		> 1000		
CO[C@H]1CCN([C@H]2CC[C@H]([C@H]3COc4c(Cl)cc(C(=O)NCc5c(SC)cc(C)[nH]c5=O)c(C)c4O3)CC2)C1 [Compound 40]			8.3		
CO[C@@H]1CCN([C@H]2CC[C@H]([C@H]3COc4c(Cl)cc(C(=O)NCc5c(SC)cc(C)[nH]c5=O)c(C)c4O3)CC2)C1 [Compound 42]		8.6	47.1		
CSc1cc(C)[nH]c(=O)c1CNC(=O)c1cc(Cl)c2c(c1C)O[C@@H]([C@H]1CC[C@H](N3CC4(CCO4)C3)CC1)CO2 [Compound 46]		7.7	65.8		
CSc1cc(C)[nH]c(=O)c1CNC(=O)c1cc(Cl)c2c(c1C)O[C@@H]([C@H]1CC[C@H](N3CC4(CCOC4)C3)CC1)CO2 [Compound 48]		6	27.9		
Cc1cc(C)c(CNC(=O)c2cc(Cl)c3c(c2C)OC(C2CCC(N4CC(C(C)(C)O)C4)CC2)CO3)c(=O)[nH]1 (stereo not drawn) [Compound 85]	10.5		95.5		
Cc1cc(C)c(CNC(=O)c2cc(Cl)c3c(c2C)O[C@@H](C2CCN(CC4COC4)CC2)CO3)c(=O)[nH]1 [Compound 86]	20.1		> 1000		
Cc1cc(C)c(CNC(=O)c2cc(Cl)c3c(c2C)O[C@@H](C2CCN(C4COC4)CC2)CO3)c(=O)[nH]1 [Compound 88]	29.5		310		
CSc1cc(C)[nH]c(=O)c1CN(C)C(=O)c1cc(Cl)c2c(c1C)O[C@@H]([C@H]1CC[C@@H](N(C)C)CC1)CO2 [Compound 128]	9.5		43.2		
Cc1cc(C)c(CNC(=O)c2c(C)c3c(c(Cl)c2F)OC[C@H]([C@H]2CC[C@H](N(C)C)CC2)O3)c(=O)[nH]1 [Compound 132]	7.3	722			
COc1c(Cl)c2c(c(C)c1C(=O)NCc1c(C)cc(C)[nH]c1=O)O[C@@H]([C@H]1CC[C@@H](N(C)C)CC1)CO2 [Compound 134]	6.6	125			
COc1c(Cl)c2c(c(C)c1C(=O)NCc1c(C)cc(C)[nH]c1=O)O[C@@H]([C@H]1CC[C@H](N(C)C)CC1)CO2 [Compound 135]	80.1	5600			
COC1C[N+]([O-])([C@H]2CC[C@@H]([C@H]3COc4c(Cl)cc(C(=O)NCc5c([S+](C)[O-])cc(C)n(O)c5=O)c(C)c4O3)CC2)C1 (stereo partly drawn) [Compound 136]	42.5	192			
Cc1cc(C)c(CNC(=O)c2cc(Cl)c3c(c2Cl)O[C@H]([C@H]2CC[C@@H](N(C)C)CC2)CO3)c(=O)[nH]1 [Compound 142]	1160	7610			
Cc1cc(C)c(CNC(=O)c2cc(Cl)c3c(c2Cl)O[C@@H]([C@H]2CC[C@H](N(C)C)CC2)CO3)c(=O)[nH]1 [Compound 144]	15.6	769			
Cc1cc(C)c(CNC(=O)c2cc(Cl)c3c(c2Cl)OC[C@@H]([C@H]2CC[C@H](N(C)C)CC2)O3)c(=O)[nH]1 [Compound 148]	67.1	2830			
COC1CN([C@H]2CC[C@H]([C@H]3COc4c(Cl)cc(C(=O)NCc5c(SC)cc(C)[nH]c5=O)c(Cl)c4O3)CC2)C1 [Compound 150]	11.6	22.2			
COC1CN([C@H]2CC[C@H]([C@H]3COc4c(C#N)cc(C(=O)NCc5c(SC)cc(C)[nH]c5=O)c(C)c4O3)CC2)C1 [Compound 154]	4.2	30			
[2H]C([2H])([2H])Sc1cc(C)[nH]c(=O)c1CNC(=O)c1cc(Cl)c2c(c1C)O[C@@H](C1CCC(N3CC(OC)C3)CC1)CO2 (stereo partly drawn) [Compound 177]	1.5	2.3			

Continued, in another order:

IC50 (EZH2/SUZ/EED) [nM]	IC50 (EZH1/SUZ/EED) [nM]	IC50 [1, 2] [nM]	IC50 [1, 3] [nM]	Structure (SMILES)	IC50 ([1]; Homo sapiens, KARPAS-422, 72 h, read-out: Test Example 2 H3K27Me3 inhibition (Karpas-422) IC50(nM)) [nM]
9.6	7		233	Cc1cc(C)c(CNC(=O)c2cc(Cl)c3c(c2C)OC(C2CCC(N4CC5COCC5C4)CC2)CO3)c(=O)[nH]1 (single isomer, unassigned) [Compound 59]	
3.1		14.2		COC1CN([C@H]2CC[C@H]([C@H]3COc4c(Cl)cc(C(=O)NCc5c(SC)cc(C)[nH]c5=O)c(C)c4O3)CC2)C1 [Compound 9]	
2.6		9.4		CSc1cc(C)[nH]c(=O)c1CNC(=O)c1cc(Cl)c2c(c1C)O[C@H]([C@H]1CC[C@H](N3CC(OC4CC4)C3)CC1)CO2 [Compound 12]	
2.1		101		CSc1cc(C)[nH]c(=O)c1CNC(=O)c1cc(Cl)c2c(c1C)O[C@@H]([C@H]1CC[C@H](N3CC4COCC4C3)CC1)CO2 (stereo partly drawn) [Compound 15]	
	2.2	2.8		COC1CC2CN([C@H]3CC[C@@H]([C@H]4COc5c(Cl)cc(C(=O)NCc6c(SC)cc(C)[nH]c6=O)c(C)c5O4)CC3)CC2C1 (stereo partly drawn) [Compound 49]	
	11.8	23.8		COC1CC2CN([C@H]3CC[C@H]([C@H]4COc5c(Cl)cc(C(=O)NCc6c(SC)cc(C)[nH]c6=O)c(C)c5O4)CC3)CC2C1 (stereo partly drawn) [Compound 50]	
5.7		462		COc1cc(C)[nH]c(=O)c1CNC(=O)c1cc(Cl)c2c(c1C)O[C@@H]([C@H]1CC[C@H](N3CC(OC)C3)CC1)CO2 [Compound 98]	
9.4	91.2			COc1cc(C)[nH]c(=O)c1CNC(=O)c1cc(Cl)c2c(c1C)O[C@@H]([C@H]1CC[C@@H](N3CC4CC4C3)CC1)CO2 (stereo partly drawn) [Compound 113]	
4.9	74.8			COc1cc(C)[nH]c(=O)c1CNC(=O)c1cc(Cl)c2c(c1C)O[C@@H]([C@H]1CC[C@@H](N3CC4C(C3)C4OC)CC1)CO2 (stereo partly drawn) [Compound 115]	
1260	8490			COC1CN([C@H]2CC[C@@H]([C@H]3COc4c(Cl)cc(C(=O)NCc5c([S+](C)[O-])cc(C)[nH]c5=O)c(C)c4O3)CC2)C1 (stereo partly drawn) [Compound 139]	
897	8910			COC1CN([C@H]2CC[C@H]([C@H]3COc4c(Cl)cc(C(=O)NCc5c([S+](C)[O-])cc(C)[nH]c5=O)c(C)c4O3)CC2)C1 (stereo partly drawn) [Compound 140]	
		13.2		COc1cc(C)[nH]c(=O)c1CNC(=O)c1cc(Cl)c2c(c1Cl)O[C@@H]([C@H]1CC[C@@H](N3CC(OC)C3)CC1)CO2 [Compound 151]	
